In patent US10273267B2, “Beta-hairpin peptidomimetics as selective elastase inhibitors” (POLYPHOR AG, priority 2013, dated 2019):
Where a SMILES comes first, the peptide text is derived from it. [ ]: non-standard residue; d: D form. Gly(octyl) = CCCCCCCC[C@H](N)C(=O)O

Columns and labels:
Type in all cases: biochemical
[1] = biological target: T1, human neutrophil elastase (Homo sapiens, UniProt P08246); test: Inhibition of human neutrophil elastase (hydrolysis of MeOSuc-AAPV-pNA); details: substrate MeOSuc-AAPV-pNA 0.3 mM, enzyme 10 nM, 37° C., pH 8; read-out: Human neutrophil elastase (hNE) IC50
T1 construct: purchased Serva Electrophoresis, Germany
T1 sequence (P08246 30-267): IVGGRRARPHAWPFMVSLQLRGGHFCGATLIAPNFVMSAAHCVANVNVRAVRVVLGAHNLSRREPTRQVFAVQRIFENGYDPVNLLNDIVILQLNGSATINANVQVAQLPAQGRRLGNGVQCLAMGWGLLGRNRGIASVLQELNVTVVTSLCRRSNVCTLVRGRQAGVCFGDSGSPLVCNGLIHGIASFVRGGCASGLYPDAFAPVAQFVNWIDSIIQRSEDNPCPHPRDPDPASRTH
Method: 2.2 Inhibition of Human Neutrophil Elastase
The ability of the peptides of the invention to inhibit the hydrolysis activity of human neutrophil elastase (Serva Electrophoresis, Germany) using the synthetic tetrapeptidic substrate MeOSuc-AAPV-pNA (Bachem, Switzerland) was determined as follows:
(§1) The above substrate (0.3 mM) and human neutrophil elastase (10 nM) were incubated at 37° C. with serial dilutions of the peptides (1% DMSO final) in assay buffer (50 mM Tris, pH 8, 300 mM NaCl, 0.01% Tween20). The release of pNA was followed by monitoring the change in absorbance at 405 nm for 30 minutes. Control assays with the same assay set-up as above, but without peptide, ran linearly. The dose-response data were fitted to the 4-parameter Hill equation providing the IC50 value using Graphpad (Prism 5).

[2] = biological target: T2, porcine pancreatic elastase (Sus scrofa, UniProt P00772); test: Inhibition of porcine pancreatic elastase (hydrolysis of MeOSuc-AAA-pNA); details: for hNE/PPE selectivity: ratio of PPE IC50 to hNE IC50; for IC50: substrate MeOSuc-AAA-pNA 1 mM, enzyme 15 nM, 37° C., pH8, read-out: Porcine pancreatic elastase (PPE) IC50
T2 construct: purchased Sigma, USA
Method: 2.3 Inhibition of Porcine Pancreatic Elastase
The ability of the peptides of the invention to inhibit the hydrolysis activity of porcine pancreatic elastase (Sigma, USA) using the synthetic tripeptidic substrate MeOSuc-AAA-pNA (Bachem, Switzerland) was determined as follows:
as §1, with “(1” for “(0.3”, “porcine pancreatic” for “neutrophil”, “(15” for “(10”, “(0.5%” for “(1%”, “pH8, 100” for “pH 8, 300”

[3] = biological target: T3, human proteinase 3 (Homo sapiens, UniProt P24158); test: Inhibition of human proteinase 3 (substrate Boc-Ala-Ala-Nva-SBzl); details: for hNE/hPr3 selectivity: ratio of hPr3 IC50 to hNE IC50; for IC50: substrate Boc-Ala-Ala-Nva-SBzl 1 mM, enzyme 10 nM, 37° C., pH7.4, read-out: Human proteinase 3 (hPr3) IC50
T3 construct: purchased Elastin Products Company, USA
T3 sequence (P24158 28-248): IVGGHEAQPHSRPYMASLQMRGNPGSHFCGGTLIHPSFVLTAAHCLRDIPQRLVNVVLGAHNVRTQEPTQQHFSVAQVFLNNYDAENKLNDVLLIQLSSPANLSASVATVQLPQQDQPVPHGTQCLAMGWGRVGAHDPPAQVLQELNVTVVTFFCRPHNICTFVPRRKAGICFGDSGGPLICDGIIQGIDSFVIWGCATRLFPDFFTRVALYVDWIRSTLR
Method: 2.4 Inhibition of Human Proteinase 3
The inactivation of human proteinase 3 (Elastin Products Company, USA) by the peptides of the invention using synthetic tripeptidic substrate Boc-Ala-Ala-Nva-SBzl (Elastin Products Company, USA) was determined as follows:
as §1, with “(1 mM), 4,4′-dithiodipyridine (250 μM)” for “(0.3 mM)”, “proteinase 3” for “neutrophil elastase”, “(0.5%” for “(1%”, “pH7.4, 150” for “pH 8, 300”, “reaction process” for “release of pNA”, “340” for “405”

T2 sequence (P00772 27-266): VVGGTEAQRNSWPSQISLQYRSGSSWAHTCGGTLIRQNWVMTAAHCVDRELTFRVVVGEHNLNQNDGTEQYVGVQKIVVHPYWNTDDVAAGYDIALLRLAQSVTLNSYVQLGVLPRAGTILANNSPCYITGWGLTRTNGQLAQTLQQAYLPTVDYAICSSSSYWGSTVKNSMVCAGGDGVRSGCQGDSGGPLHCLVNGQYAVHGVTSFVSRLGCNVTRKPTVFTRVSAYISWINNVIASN

| Compound | IC50 [1] [µM] | hNE/PPE selectivity [2] | IC50 [2] [µM] | hNE/hPr3 selectivity [3] | IC50 [3] [µM] |
| --- | --- | --- | --- | --- | --- |
| CCCCCCCC[C@@H]1NC(=O)[C@H](Cc2ccc(O)cc2)NC(=O)[C@@H](C(C)C)NC(=O)[C@H]([C@@H](C)O)NC(=O)[C@H](CCCCN)NC(=O)[C@H](CCC(N)=O)NC(=O)[C@@H]2CCCN2C(=O)[C@@H]2CCCN2C(=O)[C@H]([C@@H](C)CC)NC(=O)[C@H](CO)NC(=O)[C@H](C)NC(=O)[C@H]([C@@H](C)O)NC(=O)[C@H](CCC(=O)O)NC1=O [Example 21, Cyclo(-OctGly-Glu-Thr-Ala-Ser-Ile-Pro-Pro-GI n-Lys-Thr-^DVal-Tyr-)] (cyclo([Gly(octyl)]ETASIPPQKT[dV]Y)) | 0.0129 | 822 | 10.6 | 1008 | 13 |
| CCCCCCCC[C@@H]1NC(=O)[C@H](CCCCN)NC(=O)[C@@H](C(C)C)NC(=O)[C@H]([C@@H](C)O)NC(=O)[C@H](CCCCN)NC(=O)[C@H](CCC(N)=O)NC(=O)[C@@H]2CCCN2C(=O)[C@@H]2CCCN2C(=O)[C@H]([C@@H](C)CC)NC(=O)[C@H](CO)NC(=O)[C@H](C)NC(=O)[C@H]([C@@H](C)O)NC(=O)[C@H](CCC(=O)O)NC1=O [Example 22, Cyclo(-OctGly-Glu-Thr-Ala-Ser-Ile-Pro-Pro-Gln-Lys-Thr-^DVal-Lys-)] (cyclo([Gly(octyl)]ETASIPPQKT[dV]K)) | 0.0124 | 4847 | 60.1 | 5677 | 70.4 |

Compounds with a lower IC50 [1], results first:

| IC50 [1] [µM] | hNE/PPE selectivity [2] | IC50 [2] [µM] | hNE/hPr3 selectivity [3] | IC50 [3] [µM] | Compound |
| --- | --- | --- | --- | --- | --- |
| 0.0116 | 1112 | 12.9 | 664 | 7.7 | CCCCCCCC[C@@H]1NC(=O)[C@H](Cc2ccc(O)cc2)NC(=O)[C@@H](Cc2ccc(O)cc2)NC(=O)[C@H]([C@@H](C)O)NC(=O)[C@H](CCCCN)NC(=O)[C@H](CCC(N)=O)NC(=O)[C@@H]2CCCN2C(=O)[C@@H]2CCCN2C(=O)[C@H]([C@@H](C)CC)NC(=O)[C@H](CO)NC(=O)[C@H](C)NC(=O)[C@H]([C@@H](C)O)NC(=O)[C@H](CCC(=O)O)NC1=O [Example 24, Cyclo(-OctGly-Glu-Thr-Ala-Ser-Ile-Pro-Pro-Gln-Lys-Thr-^DTyr-Tyr-)] (cyclo([Gly(octyl)]ETASIPPQKT[dY]Y)) |
| 0.0064 | 7031 | 45 | 6531 | 41.8 | CCCCCCCC[C@@H]1NC(=O)[C@H](CCCCN)NC(=O)[C@@H](Cc2ccc(O)cc2)NC(=O)[C@H]([C@@H](C)O)NC(=O)[C@H](CCCCN)NC(=O)[C@H](CCC(N)=O)NC(=O)[C@@H]2CCCN2C(=O)[C@@H]2CCCN2C(=O)[C@H]([C@@H](C)CC)NC(=O)[C@H](CO)NC(=O)[C@H](C)NC(=O)[C@H]([C@@H](C)O)NC(=O)[C@H](CCC(=O)O)NC1=O [Example 25, Cyclo(-OctGly-Glu-Thr-Ala-Ser-Ile-Pro-Pro-GI n-Lys-Thr-^DTyr-Lys-)] (cyclo([Gly(octyl)]ETASIPPQKT[dY]K)) |
| 0.006 | 1717 | 10.3 | 1717 | 10.3 | CCCCCCCC[C@@H]1NC(=O)[C@H](C(C)C)NC(=O)[C@@H](Cc2ccc(O)cc2)NC(=O)[C@H]([C@@H](C)O)NC(=O)[C@H](CCCCN)NC(=O)[C@H](CCC(N)=O)NC(=O)[C@@H]2CCCN2C(=O)[C@@H]2CCCN2C(=O)[C@H]([C@@H](C)CC)NC(=O)[C@H](CO)NC(=O)[C@H](C)NC(=O)[C@H]([C@@H](C)O)NC(=O)[C@H](CCC(=O)O)NC1=O [Example 23, Cyclo(-OctGly-Glu-Thr-Ala-Ser-Ile-Pro-Pro-Gln-Lys-Thr-^DTyr-Val-)] (cyclo([Gly(octyl)]ETASIPPQKT[dY]V)) |
